The values that follow are results of earlier work, collected in US8871744B2, “Compounds and methods for selectively targeting tumor-associated mucins” (B & G Partyers, LLC, priority 2010, dated 2014).

In one series the test system is NMuMG cells. The conditions noted are these: NMuMG cells stimulated with TGF-β1.
Series [1] deals with normal mammary epithelial cells.
The test system of series [2] is sialomucin complex/rat Muc4. The conditions noted are these: transfected MEC, activated in fetal calf serum.

Consider `NC(=O)c1ccc(-c2nc(-c3ccc4c(c3)OCO4)c(-c3ccccn3)[nH]2)cc1` [SB431542, 4-[4-(1,3-benzodioxol-5-yl)-5-(2-pyridinyl)-1H-imidazol-2-yl]benzamide], for which, in the series with NMuMG cells, the “morphological changes associated with EMT” value is “inhibited” and the “phosphorylation of Smad2” value is listed as “inhibited”.
For the molecule `CN[C@@H]1C[C@H]2O[C@@](C)([C@@H]1OC)n1c3ccccc3c3c4c(c5c6ccccc6n2c5c31)C(=O)NC4` [staurosporine], the “epithelial to mesenchymal transition stimulated by TGF-β” value in series [1] is given as “abrogated”. The Muc4 protein expression entry in series [2] is on record as “inhibited”.
